What was measured:
NCI-H460 = test: Cytotoxicity assay (SRB, 72 h) NCI-H460; assay type: cell-based, Human; settings: Homo sapiens; for IC50: NCI-H460, 72 h, SRB assay, read-out: IC50 ± SD NCI-H460
A2780 = test: Cytotoxicity assay (SRB, 72 h) A2780; assay type: cell-based, Human; settings: Homo sapiens, A2780, read-out: IC50 ± SD A2780
A2780-Dx = test: Cytotoxicity assay (SRB, 72 h) A2780-Dx; assay type: cell-based, Human; settings: for RI (Resistance Index): A2780-Dx versus A2780; for IC50: Homo sapiens, A2780/DX, 72 h, SRB assay, multidrug-resistant ovarian carcinoma, read-out: IC50 ± SD A2780-Dx
HeLa = test: Cytotoxicity assay (SRB, 72 h) HeLa; assay type: cell-based, Human; settings: Homo sapiens, HeLa, read-out: IC50 ± SD HeLa
A431 = test: Cytotoxicity assay (SRB, 72 h) A431; assay type: cell-based, Human; settings: Homo sapiens, A-431, read-out: IC50 ± SD A431
Capan 1 = test: Cytotoxicity assay (SRB, 72 h) Capan 1; assay type: cell-based, Human; settings: Homo sapiens, CAPAN-1, read-out: IC50 ± SD Capan 1
HDAC10 = HDAC10 (Homo sapiens, UniProt Q969S8); test: HDAC profiling HDAC10; assay type: biochemical; settings: purified isoform, 10 concentrations from 10 μM, triplicate
Chain of HDAC10 (Q969S8 whole entry, canonical isoform): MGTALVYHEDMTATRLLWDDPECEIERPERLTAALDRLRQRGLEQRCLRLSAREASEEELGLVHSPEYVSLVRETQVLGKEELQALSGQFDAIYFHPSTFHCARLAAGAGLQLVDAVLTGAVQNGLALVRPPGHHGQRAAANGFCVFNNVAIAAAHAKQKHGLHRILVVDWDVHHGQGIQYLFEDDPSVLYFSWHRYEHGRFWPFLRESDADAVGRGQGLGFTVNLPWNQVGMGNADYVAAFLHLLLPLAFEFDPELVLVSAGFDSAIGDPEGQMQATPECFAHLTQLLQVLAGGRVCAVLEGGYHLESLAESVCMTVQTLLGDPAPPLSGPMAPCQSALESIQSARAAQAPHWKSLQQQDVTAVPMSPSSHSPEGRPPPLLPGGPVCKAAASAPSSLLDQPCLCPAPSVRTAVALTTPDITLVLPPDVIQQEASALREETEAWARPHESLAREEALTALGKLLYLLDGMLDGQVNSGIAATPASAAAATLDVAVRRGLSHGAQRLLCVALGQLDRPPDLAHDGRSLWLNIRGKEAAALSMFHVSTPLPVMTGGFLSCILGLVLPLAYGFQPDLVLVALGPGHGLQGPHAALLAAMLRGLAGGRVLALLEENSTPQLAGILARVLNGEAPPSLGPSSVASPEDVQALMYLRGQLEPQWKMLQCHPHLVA

HDAC2 = HDAC2 (Homo sapiens, UniProt Q92769); test: HDAC profiling HDAC2; assay type: biochemical; settings: purified isoform, 10 concentrations from 10 μM, triplicate
Chain of HDAC2 (Q92769 whole entry, canonical isoform): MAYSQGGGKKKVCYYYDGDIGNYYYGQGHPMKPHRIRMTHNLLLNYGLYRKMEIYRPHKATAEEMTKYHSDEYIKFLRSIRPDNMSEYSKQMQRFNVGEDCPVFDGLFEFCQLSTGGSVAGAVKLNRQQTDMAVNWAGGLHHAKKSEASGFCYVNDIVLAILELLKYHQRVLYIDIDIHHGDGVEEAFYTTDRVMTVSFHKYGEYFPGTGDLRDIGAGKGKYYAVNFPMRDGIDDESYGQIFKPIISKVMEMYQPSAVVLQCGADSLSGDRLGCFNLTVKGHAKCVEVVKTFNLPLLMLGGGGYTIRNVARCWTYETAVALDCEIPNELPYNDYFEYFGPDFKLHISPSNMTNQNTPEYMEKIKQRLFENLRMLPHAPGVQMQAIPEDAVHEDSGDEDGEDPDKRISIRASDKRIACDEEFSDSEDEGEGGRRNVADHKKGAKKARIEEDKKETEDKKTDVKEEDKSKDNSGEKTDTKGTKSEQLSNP

Acetylated Tubulin = test: Western blot, acetylation of tubulin in NCI-H460 cells; assay type: cell-based, Human; settings: 24 h; SN38 0.05 μM, SAHA 5 μM, 3b and 3d 0.125–0.2–0.5 μM
Description: (§1) The supernatant, containing the total proteins extracts, were transferred in new vials. The protein concentration was measured by Bradford Protein Assay. Equal amounts of proteins for each sample were then resolved by SDS-PAGE and loaded on 10–12% polyacrilamide gels. The proteins were then transferred on nitrocellulose membranes. Molecular weights were estimated based upon the relative migration with molecular weight protein markers.
(§2) The non-specific binding was blocked by incubation of membranes in TBS-tween (25 mM Tris, 150 mM NaCl, 0.1% Tween 20) with 5% nonfat dry milk (BIORAD, Milan) for 60 minutes. Subsequently, the membrane was incubated overnight with primary antibodies: anti-Histone H4 (Millipore, 1:500), anti-acetyl-H4 (Santa Cruz, 1:1000) anti-p21 (Santa Cruz, 1:1000), anti-acetyl-tubulin (abcam, 1:1000), anti-α-tubulin (Sigma, 1:5000), anti β-actin (Sigma, 1:5000) and anti-Topoisomerase 1 (Santa Cruz, 1:500). After three washes with TBST blots were incubated with HRP-coniugated secondary anti-mouse and anti-rabbit (Santa Cruz, 1:5000) 1 hour at room temperature. After three washes with TBST the blots were developed with ECL substrate (GE Healthcare) and chemiluminescence detected by ChemiDoc Imaging System (Biorad). The optical density of the protein bands detected by western blotting was normalized on α -tubulin levels and analyzed by ChemiDoc software (Biorad). […]

HDAC1 = HDAC1 (Homo sapiens, UniProt Q13547); test: HDAC profiling HDAC1; assay type: biochemical; settings: purified isoform, 10 concentrations from 10 μM, triplicate
Chain of HDAC1 (Q13547 whole entry, canonical isoform): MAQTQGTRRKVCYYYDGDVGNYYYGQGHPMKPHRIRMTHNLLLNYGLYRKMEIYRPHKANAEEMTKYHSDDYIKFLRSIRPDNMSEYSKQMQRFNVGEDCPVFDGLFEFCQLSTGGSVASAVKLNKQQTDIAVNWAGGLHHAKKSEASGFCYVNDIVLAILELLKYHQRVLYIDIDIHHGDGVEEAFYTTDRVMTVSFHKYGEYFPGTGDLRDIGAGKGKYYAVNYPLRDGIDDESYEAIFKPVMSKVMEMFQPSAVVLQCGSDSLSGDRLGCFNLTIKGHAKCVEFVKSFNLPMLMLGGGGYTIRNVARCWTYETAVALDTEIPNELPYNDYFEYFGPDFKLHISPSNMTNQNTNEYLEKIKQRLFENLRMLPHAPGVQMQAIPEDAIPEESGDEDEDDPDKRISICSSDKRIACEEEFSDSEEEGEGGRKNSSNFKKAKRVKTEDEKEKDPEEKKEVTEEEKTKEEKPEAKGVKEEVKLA

HDAC6 = HDAC6 (Homo sapiens, UniProt Q9UBN7); test: HDAC profiling HDAC6; assay type: biochemical; settings: purified isoform, 10 concentrations from 10 μM, triplicate
Chain of HDAC6 (Q9UBN7 whole entry, canonical isoform): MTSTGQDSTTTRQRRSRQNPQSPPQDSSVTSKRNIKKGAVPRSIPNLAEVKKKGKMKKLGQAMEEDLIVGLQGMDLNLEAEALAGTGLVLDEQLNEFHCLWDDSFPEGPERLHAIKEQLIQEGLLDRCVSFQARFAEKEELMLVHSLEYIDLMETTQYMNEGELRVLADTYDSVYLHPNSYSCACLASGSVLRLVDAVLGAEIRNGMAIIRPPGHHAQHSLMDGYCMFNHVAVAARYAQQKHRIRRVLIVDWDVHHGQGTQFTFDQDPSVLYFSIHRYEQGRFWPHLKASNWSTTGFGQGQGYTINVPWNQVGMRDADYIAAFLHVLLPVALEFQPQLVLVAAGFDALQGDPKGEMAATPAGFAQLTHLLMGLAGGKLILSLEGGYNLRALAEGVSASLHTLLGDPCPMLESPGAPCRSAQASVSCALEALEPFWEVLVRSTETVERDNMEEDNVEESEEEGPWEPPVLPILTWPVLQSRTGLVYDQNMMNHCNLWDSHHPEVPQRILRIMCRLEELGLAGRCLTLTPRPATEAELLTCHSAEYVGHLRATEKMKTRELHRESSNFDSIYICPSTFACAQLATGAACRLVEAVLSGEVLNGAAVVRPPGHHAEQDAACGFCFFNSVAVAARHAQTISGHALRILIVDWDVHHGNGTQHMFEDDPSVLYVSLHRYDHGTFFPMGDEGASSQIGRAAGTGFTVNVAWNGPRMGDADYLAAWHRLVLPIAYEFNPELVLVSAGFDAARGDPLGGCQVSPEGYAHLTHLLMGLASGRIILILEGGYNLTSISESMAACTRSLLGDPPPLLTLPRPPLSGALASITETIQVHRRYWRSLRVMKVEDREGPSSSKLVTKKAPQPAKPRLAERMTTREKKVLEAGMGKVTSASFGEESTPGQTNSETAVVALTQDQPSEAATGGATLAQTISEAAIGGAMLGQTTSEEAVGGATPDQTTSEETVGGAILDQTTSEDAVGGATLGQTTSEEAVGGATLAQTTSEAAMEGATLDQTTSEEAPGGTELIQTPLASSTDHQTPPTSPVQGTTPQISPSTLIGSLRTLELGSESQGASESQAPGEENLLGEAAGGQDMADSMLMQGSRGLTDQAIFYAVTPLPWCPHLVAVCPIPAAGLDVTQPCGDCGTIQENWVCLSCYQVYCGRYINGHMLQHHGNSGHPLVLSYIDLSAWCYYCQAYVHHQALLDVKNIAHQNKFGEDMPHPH

Acetylated Histone H4 = test: Western blot, acetylation of histone H4 in NCI-H460 cells; assay type: cell-based, Human; settings: 24 h; SN38 0.05 μM, SAHA 5 μM, 3b and 3d 0.125–0.2–0.5 μM
Description: as §1, §2

MM481 = test: Cytotoxicity assay, primary mesothelioma MM481; assay type: cell-based, Human; settings: epithelioid, 72 h, SBR assay; read-out: IC50 ± SD MM481
MM404 = test: Cytotoxicity assay, primary mesothelioma MM404; assay type: cell-based, Human; settings: epithelioid, 72 h, SBR assay; read-out: IC50 ± SD MM404
MM487 = test: Cytotoxicity assay, primary mesothelioma MM487; assay type: cell-based, Human; settings: biphasic, 72 h, SBR assay; read-out: IC50 ± SD MM487
MM432 = test: Cytotoxicity assay, primary mesothelioma MM432; assay type: cell-based, Human; settings: sarcomatoid, 72 h, SBR assay; read-out: IC50 ± SD MM432
MM473 = test: Cytotoxicity assay, primary mesothelioma MM473; assay type: cell-based, Human; settings: epithelioid, 72 h, SBR assay; read-out: IC50 ± SD MM473
MM491 = test: Cytotoxicity assay, primary mesothelioma MM491; assay type: cell-based, Human; settings: biphasic, 72 h, SBR assay; read-out: IC50 ± SD MM491
MM472 = test: Cytotoxicity assay, primary mesothelioma MM472; assay type: cell-based, Human; settings: sarcomatoid, 72 h, SBR assay; read-out: IC50 ± SD MM472
MM288 = test: Cytotoxicity assay, primary mesothelioma MM288; assay type: cell-based, Human; settings: epithelioid, 72 h, SBR assay; read-out: IC50 ± SD MM288
MM317 = test: Cytotoxicity assay, primary mesothelioma MM317; assay type: cell-based, Human; settings: epithelioid, 72 h, SBR assay; read-out: IC50 ± SD MM317

CC[C@@]1(O)C(=O)OCc2c1cc1n(c2=O)Cc2c-1nc1ccccc1c2C=NOCCCCCCNC(=O)CS [Compound 10, N-[camptothecin-7-yl-(methyleneaminooxy)-hexyl]-2-mercaptoacetamide]
IC50 (NCI-H460): 100 ± 10 nM
IC50 (A2780): 210 ± 50 nM
RI (Resistance Index) (A2780-Dx): 1.7
IC50 (A2780-Dx): 350 ± 100 nM
melting point: 120 °C

CC[C@@]1(O)C(=O)OCc2c1cc1n(c2=O)Cc2c-1nc1ccccc1c2C=NOCCCCCC(=O)NO [Compound 3b, 6-(camptothecin-7-ylmethyleneaminooxy)-hexanoic acid hydroxyamide]
IC50 (HeLa): 160 ± 40 nM
IC50 (A431): 4 ± 1 nM
IC50 (Capan 1): 6 ± 0.7 nM
IC50 (NCI-H460): 23 ± 4 nM
IC80 (NCI-H460; NCI-H460 cells): 500 nM
IC50 (HDAC10): 99.9 nM
IC50 (HDAC2): 76.2 nM
accumulation of acetylated tubulin (Acetylated Tubulin): less potent than 3d on both targets
IC50 (HDAC1): 43 nM
IC50 (A2780): 8 ± 2 nM
IC50 (HDAC6): 3.87 nM
RI (Resistance Index) (A2780-Dx): 31.7
IC50 (A2780-Dx): 270 ± 70 nM
accumulation of acetylated histone H4 (Acetylated Histone H4): less potent than 3d on both targets, particularly on H4

N.N.[Cl][Pt][Cl] [Cisplatin]
IC50 (MM481): 7000 ± 1500 nM
IC50 (MM404): 2400 ± 500 nM
IC50 (MM487): 3000 ± 500 nM
IC50 (MM432): 5000 ± 800 nM
IC50 (MM473): 2400 ± 200 nM
IC50 (MM491): 6500 ± 900 nM
IC50 (MM472): 1260 ± 100 nM
IC50 (MM288): 8100 ± 300 nM
IC50 (MM317): 4200 ± 600 nM

Source: PMC6177136, “Hybrid topoisomerase I and HDAC inhibitors as dual action anticancer agents” (PLoS ONE, 2018)
